Source: patent publication US10155751B2, “Pyrazolyl-substituted heteroaryls and their use as medicaments” (Boehringer Ingelheim International GmbH, priority 2015, dated 2018)
pIC50: −log10 of the molar value.

Target: Recombinant human Aurora B (amino acids 1-344) (Homo sapiens (Human), UniProt Q96GD4)
Experiment: Aurora B kinase test (ADP Glo)
Format: biochemical
Conditions: for pIC50: read-out: AURB inhibition IC50-value (chapter 5.3)
Protocol: The activity of the Aurora B kinase protein was determined using the ADP Glo® Luminescence Kinase test (Promega; V9103X). In this homogeneous test the amount of ADP remaining after the kinase reaction is quantified by a luciferin-luciferase reaction using luminescence. The luminescence signal obtained correlates with the amount of ADP still present and thus correlates with the activity of the protein kinase.
The test compounds were dissolved in 100% DMSO at a concentration of 10 mM and diluted in DMSO to a concentration of 5 mM. Serial Dilution is done in 1:10 steps in 100% DMSO. All further dilutions of the substances were carried out with test buffer (50 mM Hepes, pH 7.5, 10 mM MgCl2, 1 mM EGTA, 60 μM Ultra Pure ATP, 0.01% Brij35, 0.1% BSA, 5 mM 8-Glycerophosphate) until a concentration was reached which was 2.5 times above the final test concentration (final concentration of the compounds: 50 μM to 0.005 nM). 4 μl aliquots of these dilutions were transferred into a 384-well Optiplate (Perkin Elmer, #6007290). His-Aurora B was diluted to 125 nM in the test buffer and 4 μl of this dilution were used in the kinase test (final concentration of Aurora B=50 nM in a total volume of 10 μl). After 15 minutes incubation at room temperature 2 μl of 250 μM substrate ([[…]]; University of Dundee) in test buffer were added to each well and the incubation was continued for a further 60 minutes at room temperature.
Positive controls are the reaction mixtures that contain no test substance; negative controls (blanks) are reaction mixtures that contain no kinase.
After 60 minutes, 10 μl ADP-Glo® solution (ADP-Glo Reagent #V912B Promega) (heated to room temperature) were added to each well and incubation was continued for a further 40. minutes. Then 20 μl Kinase detection mix (Detection Buffer #V913B Promega; Kinase Detection Substrate #V914B Promega) were added and incubated for 40 minutes at room temperature. The plates were read in Envision Luminescence Reader (Perkin-Elmer).
The output file of the reader is a csv file that contains the well number and measured RLU. For data evaluation and calculation, the measurement of the negative control was set as 0% ctrl and the measurement of the positive control was set as 100% ctrl. Based on this values the % value for the measurement of each substance concentration can be calculated using an Assay Explorer software (e.g. Accelrys). Normally, the % ctrl values calculated are between 0% and 100% values but may also occur outside these limits in individual cases based on variability or compound characteristics. The IC50-values were calculated from the % ctrl values using Assay Explorer software. Calculation: [y=(a−d)/(1+(x/c)^b)+d], a=low value, d=high value; x=conc M; c=IC50 M; b=hill; y=% ctrl.

Chain of Recombinant human Aurora B (amino acids 1-344) (Q96GD4 whole entry, the tested form may be a part): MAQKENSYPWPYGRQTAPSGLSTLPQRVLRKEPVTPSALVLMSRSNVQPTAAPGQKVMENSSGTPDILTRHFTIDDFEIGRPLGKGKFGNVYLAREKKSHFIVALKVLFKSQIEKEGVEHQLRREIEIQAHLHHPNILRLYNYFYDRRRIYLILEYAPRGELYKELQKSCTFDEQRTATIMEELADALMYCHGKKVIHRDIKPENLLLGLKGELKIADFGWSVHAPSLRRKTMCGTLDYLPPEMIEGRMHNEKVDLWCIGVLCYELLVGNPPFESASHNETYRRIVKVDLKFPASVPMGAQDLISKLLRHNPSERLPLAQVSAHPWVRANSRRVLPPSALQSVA

## C[C@@H](Oc1cc(-c2cnn(C3CCC3)c2)cc2nn(C)c(F)c12)[C@H]1CNC(=O)C1 [Example 1, (R)-4-{(R)-1-[6-(1-Cyclobutyl-1H-pyrazol-4-yl)-3-fluoro-2-methyl-2H-indazol-4-yloxy]-ethyl}-pyrrolidin-2-one]
  selectivity ratio IC50(AURB)/IC50(SYK): 34800
  pIC50: 4.46

## CC(C)n1cc(-c2cc(O[C@H](C)[C@H]3CNC(=O)C3)c3c(F)n(C)nc3c2)cn1 [Example 2, (R)-4-{(R)-1-[3-Fluoro-6-(1-isopropyl-1H-pyrazol-4-yl)-2-methyl-2H-indazol-4-yloxy]-ethyl}-pyrrolidin-2-one]
  selectivity ratio IC50(AURB)/IC50(SYK): 23955
  pIC50: 4.51

## Cc1c2c(O[C@H](C)[C@H]3CNC(=O)O3)nc(-c3cnn(C(C)(C)C)c3)cc2nn1C [Example 3, (R)-5-{(R)-1-[6-(1-tert-Butyl-1H-pyrazol-4-yl)-2,3-dimethyl-2H-pyrazolo[4,3-c]pyridin-4-yloxy]-ethyl}-oxazolidin-2-one]
  selectivity ratio IC50(AURB)/IC50(SYK): 15731
  pIC50: 4.50

## Cc1c2c(O[C@H](C)[C@H]3CNC(=O)C3)nc(-c3c[nH]nc3C(C)(C)C)cc2nn1C [Example 4, (R)-4-{(R)-1-[6-(3-tert-Butyl-1H-pyrazol-4-yl)-2,3-dimeth-yl-2H-pyrazolo[4,3-c]pyridin-4-yloxy]-ethyl}-pyrrolidin-2-one]
  selectivity ratio IC50(AURB)/IC50(SYK): 29636
  pIC50: 4.19

## C[C@@H](Oc1cc(-c2cnn(C3CC3)c2)cc2nn(C)c(F)c12)[C@H]1CNC(=O)C1 [Example 5, (R)-4-{(R)-1-[6-(1-Cycloprop-yl-1H-pyrazol-4-yl)-3-fluoro-2-methyl-2H-indazol-4-yloxy]-ethyl}-pyrrolidin-2-one]
  selectivity ratio IC50(AURB)/IC50(SYK): 15152
  pIC50: 4.30

## C[C@@H](Oc1cc(-c2cnn(CC3CC3)c2)cc2nn(C)c(F)c12)[C@H]1CNC(=O)C1 [Example 6, (R)-4-{(R)-1-[6-(1-Cycloprop-ylmethyl-1H-pyrazol-4-yl)-3-fluoro-2-methyl-2H-indazol-4-yloxy]-ethyl}-pyrrolidin-2-one]
  selectivity ratio IC50(AURB)/IC50(SYK): 13115
  pIC50: 4.47

## C[C@@H](Oc1cc(-c2cnn(C3CCC(F)(F)C3)c2)cc2nn(C)c(F)c12)[C@H]1CNC(=O)C1 (stereo partly shown) [Example 7]
  selectivity ratio IC50(AURB)/IC50(SYK): 20154
  pIC50: 4.58

## Cc1c2c(O[C@H](C)[C@H]3CNC(=O)C3)cc(-c3cnn(CC4CC4)c3)cc2nn1C [Example 8, (R)-4-{(R)-1-[6-(1-Cyclopropylmethyl-1H-pyrazol-4-yl)-2,3-dimethyl-2H-indazol-4-yloxy]-ethyl}-pyrrolidin-2-one]
  selectivity ratio IC50(AURB)/IC50(SYK): 15080
  pIC50: 4.68

## Cc1c2c(O[C@H](C)[C@H]3CNC(=O)C3)cc(-c3cnn([C@@H]4CCOC(C)(C)C4)c3)cc2nn1C [Example 9, (R)-4-((R)-1-{6-[1-((R)-2,2-Dimethyl-tetrahydro-pyran-4-yl)-1H-pyrazol-4-yl]-2,3-dimethyl-2H-indazol-4-yloxy}-ethyl)-pyrrolidin-2-one]
  selectivity ratio IC50(AURB)/IC50(SYK): 21219
  pIC50: 4.63

## Cc1c2c(O[C@H](C)[C@H]3CNC(=O)C3)cc(-c3cnn([C@H]4CO[C@@H]5CCCO[C@@H]54)c3)cc2nn1C [Example 10, 4-(1-{6-[(R)-(3S,3aR,7aR)-1-(Hexahydro-furo[3,2-b]pyran-3-yl)-1H-pyrazol-4-yl]-2,3-dimethyl-2H-indazol-4-yloxy}-ethyl)-pyrrolidin-2-one]
  selectivity ratio IC50(AURB)/IC50(SYK): 10312
  pIC50: 4.47

## Cc1c2c(O[C@H](C)[C@H]3CNC(=O)C3)cc(-c3cnn(CCF)c3)cc2nn1C [Example 11, (R)-4-((R)-1-{6-[1-(2-Fluoro-ethyl)-1H-pyrazol-4-yl]-2,3-dimethyl-2H-indazol-4-yloxy}-ethyl)-pyrrolidin-2-one]
  selectivity ratio IC50(AURB)/IC50(SYK): 20800
  pIC50: 4.51
